Data published in paper PMC7144376, “Antiviral Effects of Novel 2-Benzoxyl-Phenylpyridine Derivatives” (Molecules, 2020).

Columns and labels:
CVB3 [1] = experiment: Inhibition of CVB3-induced cytopathic effects in Hep-2 cells (MTT); type: cell-based, Coxsackievirus B3; details: for protection against CVB3-induced CPEs (microscopy): 120 μM W-9, 160 μM W-13, 160 μM W-15; for EC50 / inhibition at 160 µM: Enterovirus B; for EC50: 100 TCID50 CVB3, 48 h, MTT, read-out: EC50 (50% protection from virus-induced cytopathogenicity), CVB3; for inhibition at 160 µM: CVB3, at 160 μM, read-out: inhibition of CVB3 infections
Procedure: Figure 1 Antiviral activities of novel 2-benzoxyl-phenylpyridine derivatives against CVB3 and ADV7. […] Hep-2 or HeLa cells were infected with 100 TCID50 of CVB3 or ADV7 for 1.5 h at 37 °C. Then, the inocula were aspirated and the cells were incubated with various concentrations of test compounds for 48 h. Cell viability was determined using the MTT assay. (b) Images showing the morphology of Hep-2 and HeLa cells treated with 120 μM W-9, 160 μM W-13, or 160 μM W-15 (magnification, 20×).
(§1) The antiviral activities of compounds against CVB3 and ADV7 were determined by measuring their inhibition of virus-induced CPEs in acutely infected Hep-2 and HeLa cells, respectively. Confluent cell monolayers in 96-well plates were infected with 100 TCID50 of CVB3 or ADV7 for 1.5 h at 37 °C, inocula were aspirated, and the cells then were incubated with various concentrations of compounds at 37 °C, 5% CO2, for 48 h. CPEs were observed by microscopy and the viability of cells was determined using MTT assays. The concentrations of test compounds required to achieve 50% protection from virus-induced cytopathogenicity (EC50 values) were determined. Adverse effects of tested compounds on host cells were also assessed using the MTT method after exposing uninfected cells to various concentrations of test compounds for 48 h at 37 °C. The CC50 values of compounds were calculated using SPSS software and selectivity indices were the ratio of CC50:EC50. Each experiment was performed in triplicate and at least three times, independently.

[2] = Cytotoxicity on uninfected HeLa cells (MTT, 48 h); type: cell-based; details: human, read-out: CC50 (reduce cell viability by 50%), ADV7 host cells
Procedure: Human laryngeal carcinoma cells (Hep-2) and human cervical carcinoma cells (HeLa) were maintained in DMEM (Gibco) supplemented with 10% fetal bovine serum (FBS; Gibco), 100 U/mL penicillin and streptomycin, and 2 mM L-glutamine.
as §1

CVB3 [3] = experiment: CVB3 progeny virus yield in Hep-2 cells (TCID50 titration); type: cell-based, Coxsackievirus B3; details: 36 h, 120 μM W-9, 160 μM W-13, 160 μM W-15, 160 μM ribavirin
Procedure: Based on their antiviral activities and therapeutic selectivity indices, the effects on virus progeny yields of compounds W9, W13, and W15 were further investigated, using ribavirin as a positive control drug. To this end, confluent monolayers of Hep-2 or HeLa cells in 96-well plates were infected with 100 × median tissue culture infective dose (TCID50) of CVB3 or ADV7, then treated with 120 μM W-9, 160 μM W-13, 160 μM W-15, or 160 μM ribavirin. After 36 h, culture media and cell lysates were collected, following freeze-thaw cycles, and then subjected to virus titration.
Figure 2 The effects of W9, W13, and W15 on progeny virus production. Hep-2 cells infected with 100 TCID50 of CVB3 (a), or HeLa cells infected with 100 TCID50 of ADV7(b), were incubated in the absence (virus control) or presence of 120 μM W-9, 160 μM W-13, 160 μM W-15, or 160 μM ribavirin for 36 h, and the culture media and cell lysates then harvested for virus titration. Viral titers are presented as Log10 TCID50/mL. * p < 0.05; ** p < 0.01, compared with the virus control group.
CVB3 or ADV7 suspensions, serially diluted 10-fold with DMEM containing 2% FBS (DMEM maintenance medium, MM), were inoculated to Hep-2 or HeLa cells in 96-well plates. After 1.5 h incubation at 37 °C in 5% CO2, unbound virus was washed out and the MM was added to the cells. After 2 days, infected cells were monitored for CPEs and virus titers were calculated using the Reed–Muench method.

CVB3 [4] = experiment: Direct inactivation of virions (viricidal test); type: cell-based, Coxsackievirus B3; details: 10^4 TCID50 CVB3, 2 h at 37 °C; 120 μM W-9, 160 μM W-13, W-15, ribavirin
Procedure: To determine whether these 2-benzoxyl-phenylpyridine derivatives inactivated virions directly, 10^4 TCID50 of CVB3 suspension was incubated with 120 μM W-9, 160 μM W-13, 160 μM W-15, or 160 μM ribavirin for 2 h at 37 °C. Subsequently, viral titers were measured by inoculating 100-fold dilutions of the mixtures, beyond the effective concentrations of the compounds, into the host cells. TCID50 values were calculated by the Reed–Muench method on day 2 post-inoculation.

CVB3 [5] = experiment: Viral adsorption/entry analysis; type: cell-based, Coxsackievirus B3; details: Hep-2 cells, CVB3 10^6 TCID50, 2 h adsorption; 120 μM W-9, 160 μM W-13, W-15, ribavirin
Procedure: Figure 3 Analysis of the modes of action of W9, W13, and W15 against CVB3. (a) Analysis of effective stage. The antiviral effects of test compounds against CVB3 were detected by measuring cell viability after 48 h of infection when cells were treated with W9, W13, or W15 before, simultaneously, or after inoculation with CVB3 (100 TCID50). (b) Analysis of the effects on CVB3 adsorption. Mock-, 120 μM W-9-, 160 μM W-13-, 160 μM W-15-, or 160 μM ribavirin-treated CVB3 (10^6 TCID50) was inoculated onto Hep-2 cells and adsorbed for 2 h. Infected cells were then harvested and subjected to virus titration, using the TCID50 method. (c) The effects of test compounds on CVB3 release from Hep-2 cells. Hep-2 cells infected with 100 TCID50 of CVB3 were incubated with test compounds for 12 h, then cells and culture supernatants (intra- and extracellular) analyzed for virus yield, separately or together. Mock, no infection; VC, virus control. Values represent the means ± SDs of three independent experiments. * p < 0.05; ** p < 0.01, compared with the virus control group.
To this end, Hep-2 cells were mock-treated or inoculated with CVB3 (10^6 TCID50) treated with 120 μM W-9, 160 μM W-13, 160 μM W-15, or 160 μM ribavirin, and adsorbed for 2 h. Infected cells were then harvested and subjected to virus titration, using the TCID50 method.
Cells were infected with CVB3 (10^6 TCID50) containing 120 μM W-9, 160 μM W-13, 160 μM W-15, or 160 μM ribavirin, after 2 h adsorption at 37 °C, inocula were discarded, and the cells were washed three times with phosphate buffered saline (PBS), harvested, following three freeze-thaw cycles, and subjected to virus titration. Cells infected with CVB3 in the absence of test compounds were used as untreated virus-infected controls.

| SMILES | SI (CC50/EC50), CVB3 (CVB3 [1]) | inhibitory activity against CVB3 infection (in words) (CVB3 [1]) | protection against CVB3-induced CPEs (microscopy) (CVB3 [1]) | EC50 (CVB3 [1]) | inhibition at 160 µM (CVB3 [1]) | CC50 at 48 h [2] | reduction in CVB3 virus progeny titer relative to untreated control (CVB3 [3]) | virus titer after incubating CVB3 suspension with compound (viricidal activity) (CVB3 [4]) | virus titer during virus attachment (adsorption/entry) (CVB3 [5]) | maximum inhibition of CVB3 (CVB3 [1]) |
| --- | --- | --- | --- | --- | --- | --- | --- | --- | --- | --- |
| Cc1ccc(OC(=O)C(C)(C)C)c(-c2ccccn2)c1 [W13] | 10.2 | significant inhibitory activities | almost complete protection | 41.6 ± 11.5 µM | 92.8% | > 372 µM | approximately 2.5 log | No significant difference | no significant decrease in virus titer | – |
| CC(=O)Oc1ccc(-c2ccccn2)c(OC(=O)c2ccccc2)c1 [W15] | 6.5 | significant inhibitory activities | almost complete protection | 69.7 ± 15 µM | 90% | 795 ± 33.8 µM | approximately 2.5 log | No significant difference | no significant decrease in virus titer | – |
| O=C(Oc1cc(Cl)ccc1-c1ccccn1)c1ccccc1 [W9] | 6.0 | significant inhibitory activities | almost complete protection | 24.6 ± 8.7 µM | 73% | 265 ± 28.1 µM | approximately 2.5 log | No significant difference | no significant decrease in virus titer | – |
| NC(=O)c1ncn([C@@H]2O[C@H](CO)[C@@H](O)[C@H]2O)n1 [Ribavirin, reference compound] | 8.3 | – | – | 101 µM | – | 807 µM | approximately 2.0 log | No significant difference | no significant decrease in virus titer | 63.0% |
